Results: patent US20230057359A1, “NOVEL USE OF STEVIOL” (SUNTORY HOLDINGS LIMITED, priority 2019, published 2023)

Columns and labels:
Type in all cases: cell-based
[1] = system: normal human subcutaneous preadipocytes differentiated into adipocytes; assay: Cytotoxicity of steviol to adipocytes (WST-8 viable cell count); details: for Relative viable cell count (%): 10 days, Control=100%
Method: 5×10^5 normal human subcutaneous preadipocytes (Cat. No. PT-5020, Lonza Group AG) were precultured for 6 days in a T75 flask using a growth medium (PBM-2 medium supplemented with 10% FBS, 2 mM L-glutamine, 50 μg/mL gentamycin, and 37 ng/mL amphotericin-B, Cat. No. PT-8002, Lonza Group AG) in a CO2 incubator (37° C., 5% CO2; the same holds true for the description below). The cells were detached using 0.25% trypsin-EDTA, seeded at 10,000 cells/100 μL/well in a 96-well plate using the growth medium, and cultured overnight in a CO2 incubator. On the next day, the medium was replaced with 100 μL of a differentiation medium (PBM-2 medium supplemented with 10% FBS, 2 mM L-glutamine, 50 μg/mL gentamycin, 37 ng/mL amphotericin-B, insulin, dexamethasone, indomethacin, and 3-isobutyl-1-methylxanthine (IBMX), Cat. No. PT-8002, Lonza Group AG: the same holds true for the description below) supplemented with varying concentrations of steviol (0.001, 0.01, 0.1, 1, 10 or 100 μg/mL, dissolved in 0.1% DMSO (final concentration)). The cells were cultured for 10 days in a CO2 incubator to induce their differentiation into adipocytes. On the fourth and seventh days after the differentiation induction, the medium was replaced with a fresh medium (100 μL) having the same composition as above. A vehicle control composed of a differentiation medium supplemented with 0.1% DMSO (final concentration) was used as a negative control. Viable cell count measurement was performed by the WST-8 method. Specifically, the medium of each well after culture was replaced with a differentiation medium (100 μL) supplemented with a 1/10 amount of viable cell count measurement reagent SF, and the cells were incubated in a CO2 incubator. 30 minutes later and 90 minutes later, absorbance (450 nm, reference wavelength: 630 nm) was measured using a plate reader (VARIOSKAN FLASH, Thermo Fisher Scientific Inc.), and absorbance difference per 60 minutes was regarded as a relative viable cell count (Control=100%).

[2] = system: HepG2 cells; assay: TG accumulation test in hepatocytes (Adipogenesis Assay Kit, oleic acid); details: 0.2 mM oleic acid, 24 hours, DMSO=100%
Method: HepG2 cells were precultured using the growth medium in the same manner as in Example 5. The cells were detached using 0.25% trypsin-EDTA, seeded at 30,000 cells/100 μL/well to a 96-well plate using the growth medium, and cultured overnight in a CO2 incubator. On the next day, the medium was replaced with 100 μL of a test medium (DMEM (high glucose) supplemented with 0.2 mM oleic acid (Cat. No. 03008, Sigma-Aldrich), 10% FBS and 1% penicillin-streptomycin) supplemented with varying concentrations of steviol (12.5, 25, 50, 100 or 200 μg/mL, dissolved in 0.1% DMSO (final concentration)). The cells were cultured for 24 hours in a CO2 incubator. A test medium supplemented with 2 mM metformin (Cat. No. M2009, Tokyo Chemical Industry Co., Ltd.) was used as a positive control (Metformin), and a vehicle control composed of a test medium supplemented with 0.1% DMSO (final concentration) was used as a negative control (DMSO). Cells cultured in a test medium containing no oleic acid was used as an untreated control (Untreated). The cells thus cultured were subjected to oil red staining in the same manner as in Example 3, followed by photographing and calculation of a relative fat accumulation level. An intracellular triglyceride (TG) level in cells separately cultured under the same conditions as in the cells employed in the oil red staining was quantified using Adipogenesis Assay Kit (BioVision Inc.) according to the manufacturer's protocol. Absorbance (570 nm) was measured using a plate reader (VARIOSKAN FLASH, Thermo Fisher Scientific Inc.), and a relative TG level was calculated. Significant difference of untreated group vs fat accumulation induction group (negative control group) was tested (two-tailed) by the Student's t test as to the relative fat accumulation level and the relative TG level, and P<0.05 was regarded as having significant difference. Also, significant difference of negative control group vs steviol addition group/positive control group was tested (two-tailed) by the Dunnett test, and P<0.05 was regarded as having significant difference. The results of the fat accumulation test are shown in Table 6 and FIG. 6, and the results of the TG accumulation test are shown in Table 7 and FIG. 7.

[3] = system: HepG2 cells; assay: Cytotoxicity of steviol to hepatocytes (WST-8 viable cell count); details: for Relative viable cell count (%): 24 hours, Control=100%
Method: 5×10^5 HepG2 cells (Cat. No. JCRB1054, JCRB) were precultured for 5 days in a T75 flask using a growth medium (DMEM (high glucose, Cat. No. D5796, Sigma-Aldrich Co., LLC) supplemented with 10% FBS (Cat. No. 172012, Sigma-Aldrich Co., LLC) and 1% penicillin-streptomycin (Cat. No. 09367-34, Nacalai Tesque Inc.)) in a CO2 incubator. The cells were detached using 0.25% trypsin-EDTA, seeded at 10,000 cells/100 μL/well to a 96-well plate using the growth medium, and cultured overnight in a CO2 incubator. On the next day, the medium was replaced with 100 μL of a growth medium supplemented with varying concentrations of steviol (0.001, 0.01, 0.1, 1, 10 or 100 μg/mL, dissolved in 0.1% DMSO (final concentration)), and the cells were cultured for 24 hours in a CO2 incubator. A vehicle control composed of a growth medium supplemented with 0.1% DMSO (final concentration) was used as a negative control (Control). Viable cell count measurement was performed by the WST-8 method. Specifically, the medium of each well after culture was replaced with 100 μL of growth medium supplemented with a 1/10 amount of viable cell count measurement reagent SF, and the cells were incubated in a CO2 incubator. 30 minutes later and 90 minutes later, absorbance (450 nm, reference wavelength: 630 nm) was measured using a plate reader (VARIOSKAN FLASH, Thermo Fisher Scientific Inc.), and absorbance difference per 60 minutes was regarded as a relative viable cell count.

C=C1C[C@@]23CC[C@H]4[C@@](C)(CCC[C@@]4(C)C(=O)O)[C@@H]2CC[C@]1(O)C3 [Steviol, steviol]
cytotoxicity to adipocytes (in words) ([1]; 100 μg/mL steviol): no particular cytotoxicity to be noted was found | Relative viable cell count (%) ([1]; steviol 0.01 μg/mL): 101.8% | Relative viable cell count (%) ([1]; steviol 0.1 μg/mL): 101.7% | Relative viable cell count (%) ([1]; steviol 1 μg/mL): 95.0% | Relative viable cell count (%) ([1]; steviol 10 μg/mL): 103.6% | Relative viable cell count (%) ([1]; steviol 100 μg/mL): 93.1% | Relative TG level (%) ([2]; steviol 12.5 μg/mL): 98.8% | Relative TG level (%) ([2]; steviol 25 μg/mL): 90.0% | Relative TG level (%) ([2]; steviol 50 μg/mL): 93.7% | Relative TG level (%) ([2]; steviol 100 μg/mL): 89.4% | Relative TG level (%) ([2]; steviol 200 μg/mL): 81.4% | cytotoxicity to hepatocytes (in words) ([3]; 100 μg/mL steviol): no particular cytotoxicity to be noted was found | Relative viable cell count (%) ([3]; steviol 0.01 μg/mL): 98.8% | Relative viable cell count (%) ([3]; steviol 0.1 μg/mL): 98.4% | Relative viable cell count (%) ([3]; steviol 1 μg/mL): 95.3% | Relative viable cell count (%) ([3]; steviol 10 μg/mL): 95.6% | Relative viable cell count (%) ([3]; steviol 100 μg/mL): 87.7%
